The text below walks through data of patent publication US4837399A, “Napthoquinone antibiotics from fuserium solani” (The United States of America as represented by the …, priority 1988, dated 1989).

Structures are written as SMILES. In brackets after ≈: the same amount, converted by molar mass.

What all share (type): cell-based
For one experiment, the system named is Staphylococcus aureus. In words: Broth microdilution assay, Staphylococcus aureus. The note with it: for MIC: A = Staphylococcus aureus, complete suppression of microbial growth, read-out: Antibacterial activity (MIC). Here is the method:
(§1) Purified compounds were tested for antibiotic activity by dissolving in dimethyl sulfoxide and utilizing a standard broth microdilution assay. The smallest amount of compound resulting in complete inhibition of bacterial growth is the minimum inhibitory concentration (MIC).
(§2) The organisms used in the tests were three strains of gram-positive bacteria: Staphylococcus aureus, Streptococcus pyogenes, and a strain of Staphylococcus aureus which was resistant to the antibiotic methicillin.
(§3) Antimicrobial activity of compounds was determined against a group of bacterial pathogens, using a broth microdilution assay.Pathogens tested included Staphylococcus aureus, Streptococcus pyogenes, Escherichia coli, Serratia marcescens, Proteus vulgaris, Klebsiella pneumoniae, Salmonella typhi, and Pseudomonas aeruginosa. Activity against plant pathogenic bacteria was tested by applying acetone solutions of compounds to 14 mm Whatman No. 1 filter paper discs, drying and placing four discs/plate on freshly inoculated Kings medium B plates. Pseudomonas cepacia, P. cichorii, P. fluorescens, P. syringae pv. phaseolicola, P. viridiflava, and Xanthomonas campestris were exposed to discs containing 20 μg of compound; Curtobacterium flaccumfaciens pv. poinsettiae (formerly Corynebacterium poinsettiae) was tested at 20, 40, and 80 μg/disc. Using a similar assay procedure, Alternaria citri, Colletotrichum gloeosporioides, Diplodia natalensis, Fusarium solani, F. oxysporum, Geotrichum candidium, Phomopsis citri, and Phytophthora parasitica were tested to determine the antifungal properties of the compounds.
On the technique in general: In broth dilution the organism is exposed to a series of concentrations in liquid medium.

In a further experiment the test system is Streptococcus pyogenes. In words: Broth microdilution assay, Streptococcus pyogenes. Conditions: for MIC: B = Streptococcus pyogenes, complete suppression of microbial growth, read-out: Antibacterial activity (MIC). The method, then:
as §1, §2, §3

For experiment [1], the system named is Curtobacterium flaccumfaciens pv. poinsettiae. The experiment is described as follows: Filter paper disc assay, Curtobacterium flaccumfaciens pv. poinsettiae. The note with it: 20, 40, and 80 μg/disc, Kings medium B plates. Here is the method:
as §3
They were, however, effective against gram-positive bacteria.

In experiment [2] the test system is Staphylococcus aureus 95 (resistant to methicillin). In words: Broth microdilution assay, Staphylococcus aureus 95 (resistant to methicillin). The method, then:
as §1, §2

A further experiment concerns gram-positive bacteria. The experiment is described as follows: Broth microdilution assay, gram-positive bacteria overall. Here is the method:
as §1, §2
as §3, with “Using a similar assay procedure, Alternaria citri, Colletotrichum gloeosporioides, Diplodia natalensis, Fusarium solani, F. oxysporum, Geotrichum candidium, Phomopsis citri, and Phytophthora parasitica were tested to determine the antifungal properties of the compounds.” left out

In the case of `COC1=CC(=O)c2c(O)c(CO)c(CC(C)O)c(O)c2C1=O` (stereo not drawn) [Compound 3, 5,8-Dihydroxy-2-methoxy-6-hydroxymethyl-7-(2-hydroxypropyl)-1,4-naphthalenedione], the MIC amounted to 1 µg/mL (≈ 3.24 µM) with Staphylococcus aureus and 64 µg/mL (≈ 208 µM) with Streptococcus pyogenes. Besides, in experiment [1], the “ranking of activity against Curtobacterium flaccumfaciens pv. poinsettiae” value is “followed by 1 and 3”.

For the compound `COC1=CC(=O)c2c(O)c(CO)c3c(c2C1=O)OC(C)C3` (stereo not drawn) [Compound 2, 2,3-Dihydro-5-hydroxy-4-hydroxymethyl-8-methoxy-2-methyl-naphtho [1,2-b]furan-6,9-dione], in the experiment with Staphylococcus aureus, the “effectiveness in control of Staphylococcus aureus (in words)” value was “most effective” and the MIC is 4 µg/mL (≈ 13.8 µM). The MIC with Streptococcus pyogenes was found to be 64 µg/mL (≈ 220 µM). Further, in experiment [1], the “ranking of activity against Curtobacterium flaccumfaciens pv. poinsettiae” value was “most active”.

As to `COc1cc(O)c2c(c1O)C(=O)C(CC(C)O)C(CO)C2=O` (stereo not drawn) [Compound 1, 2,3-Dihydro-5,8-dihydroxy-6-methoxy-2-hydroxymethyl-3-(2-hydroxypropyl)-1,4-naphthalenedione], the “effectiveness in control of Staphylococcus aureus (in words)” value with Staphylococcus aureus was “most effective”. The MIC in the experiment on Staphylococcus aureus is 1 µg/mL (≈ 3.22 µM); with Streptococcus pyogenes, 0.5 µg/mL (≈ 1.61 µM); in experiment [2] (C = Staphylococcus aureus 95 (resistant to methicillin), complete suppression of microbial growth, read-out: Antibacterial activity (MIC)) it was 4 µg/mL (≈ 12.9 µM); in the experiment with gram-positive bacteria (read-out: inhibiting growth), 0.5 to 1 µg/mL (≈ 1.61 to 3.22 µM). Besides, the “preference for control of Streptococcus pyogenes (in words)” value in the experiment on Streptococcus pyogenes is reported as “preferred”. Moreover, the “preference for control of Staphylococcus aureus 95 (in words)” value in experiment [2] is given as “preferred”. In addition, in the experiment on gram-positive bacteria, the “effectiveness against gram-positive bacteria (in words)” value is “the most effective”.
